Earlier results, collected in patent publication US8492081B2, “Aldehyde-fixed, dried platelets with covalently attached exogenous active agent and method of making thereof” (The University of North Carolina at Chapel Hill, priority 2003, dated 2013).

Tests used:
[1] = Crotty et al., 2002
Punta Toro virus = conditions: free ribavirin, not loaded on platelets; previously shown

Which “concentration range that exhibits antiviral activity in tissue culture” value [1] does the source give for `NC(=O)c1ncn([C@@H]2O[C@H](CO)[C@@H](O)[C@H]2O)n1` [ribavirin] here?
The value was 10 to 100 µM.

What about the “concentration range shown to inhibit Punta Toro virus replication in vitro” value (Punta Toro virus) of the same compound?
Its value is 4-10 micrograms per ml.
